The supplement of paper PMC10307832

How the values were obtained:
Assay in all cases: relative viability (nuclei count vs DMSO), 5 days (fraction); higher = more cells survive
Lestaurtinib + Dasatinib = compound: C[C@]12O[C@H](C[C@]1(O)CO)n1c3ccccc3c3c4c(c5c6ccccc6n2c5c31)CNC4=O [Lestaurtinib] + Cc1nc(Nc2ncc(C(=O)Nc3c(C)cccc3Cl)s2)cc(N2CCN(CCO)CC2)n1 [Dasatinib] (partner 0.075 µM)
In short: (§1)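 The day after seeding in 1536-well plates, lung cancer cell lines were treated by pin tool with a single drug, or with a fixed anchor-drug dose together with five library-drug doses (not always all listed) in √10 steps. After 5 days, a combined fix-and-stain solution (final 0.05% Triton X-100, 1% formaldehyde, 1 ug/ml Hoechst) was added. Nuclei counted on 4× images gave relative viability as treated counts over vehicle counts, reported as the median of duplicate plates.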

TPCA-1 + Foretinib = compound: C1=CC(=CC=C1C2=CC(=C(S2)NC(=O)N)C(=O)N)F [TPCA-1] + COc1cc2c(Oc3ccc(NC(=O)C4(C(=O)Nc5ccc(F)cc5)CC4)cc3F)ccnc2cc1OCCCN1CCOCC1 [Foretinib] (partner 0.25 µM)
In short: as §1

TPCA-1 + Pemetrexed = compound: C1=CC(=CC=C1C2=CC(=C(S2)NC(=O)N)C(=O)N)F [TPCA-1] + Nc1nc2[nH]cc(CCc3ccc(C(=O)N[C@@H](CCC(=O)O)C(=O)O)cc3)c2c(=O)[nH]1 [Pemetrexed] (partner 0.2 µM)
In short: as §1

[1] = compound: C[C@]12O[C@H](C[C@]1(O)CO)n1c3ccccc3c3c4c(c5c6ccccc6n2c5c31)CNC4=O [Lestaurtinib] + Nc1nc2[nH]cc(CCc3ccc(C(=O)N[C@@H](CCC(=O)O)C(=O)O)cc3)c2c(=O)[nH]1 [Pemetrexed] (partner 0.2 µM)
In short: as §1

Cell Line	relative viability (Lestaurtinib + Dasatinib; first compound 0.005 µM)	relative viability (Lestaurtinib + Dasatinib; first compound 0.01581 µM)	relative viability (Lestaurtinib + Dasatinib; first compound 0.05 µM)	relative viability (Lestaurtinib + Dasatinib; first compound 0.1581 µM)	relative viability (Lestaurtinib + Dasatinib; first compound 0.5 µM)	relative viability (TPCA-1 + Foretinib; first compound 0.04 µM)	relative viability (TPCA-1 + Foretinib; first compound 0.1265 µM)	relative viability (TPCA-1 + Foretinib; first compound 0.4 µM)	relative viability (TPCA-1 + Foretinib; first compound 1.265 µM)	relative viability (TPCA-1 + Foretinib; first compound 4 µM)	relative viability (TPCA-1 + Pemetrexed; first compound 0.04 µM)	relative viability (TPCA-1 + Pemetrexed; first compound 0.1265 µM)	relative viability (TPCA-1 + Pemetrexed; first compound 0.4 µM)	relative viability (TPCA-1 + Pemetrexed; first compound 1.265 µM)	relative viability (TPCA-1 + Pemetrexed; first compound 4 µM)	relative viability ([1]; first compound 0.005 µM)	relative viability ([1]; first compound 0.01581 µM)	relative viability ([1]; first compound 0.05 µM)	relative viability ([1]; first compound 0.1581 µM)	relative viability ([1]; first compound 0.5 µM)
NCI-H358	0.15	0.129	0.162	0.105	0.115	0.811	0.729	0.845	0.517	0.227	0.187	0.167	0.162	0.156	0.167	0.177	0.164	0.174	0.136	0.158
NCI-H441	0.521	0.58	0.431	0.548	0.482	0.487	0.856	0.841	0.834	0.668	0.247	0.257	0.258	0.24	0.242	0.272	0.258	0.238	0.277	0.285
NCI-H460	0.505	0.583	0.505	0.388	0.247	1.05	0.918	1.07	1.05	0.857	0.0613	0.0689	–	0.0518	0.0585	0.0559	0.0645	0.0633	0.0509	0.0531
NCI-H520	0.209	0.203	0.164	0.169	0.159	0.768	0.816	0.753	0.676	0.742	0.779	0.727	0.737	0.578	0.608	0.772	0.678	0.593	0.369	0.318
NCI-H596	0.669	0.6	0.678	0.694	0.564	0.953	0.811	0.855	0.98	0.937	0.53	0.516	0.532	0.509	0.412	0.487	0.488	0.504	0.476	0.453
NCI-H647	0.278	0.147	0.0914	0.0755	0.0624	1.2	1.14	1.11	1.16	0.782	0.177	0.172	0.183	0.163	0.182	0.187	0.162	0.183	0.119	0.064
NCI-H650	0.405	0.397	0.301	0.315	0.232	1.01	0.947	1.03	0.729	0.858	0.952	0.916	0.994	0.631	0.809	0.938	1.01	0.557	0.573	0.33
NCI-H661	0.99	0.953	0.851	0.81	0.319	1.08	1.03	1.06	0.96	0.888	0.931	0.906	0.931	0.851	0.97	0.972	1.03	0.836	0.702	0.523
NCI-H838	0.281	0.296	0.264	0.286	0.216	1.06	0.99	0.918	0.843	0.769	0.25	0.225	0.259	0.264	0.294	0.263	0.272	0.231	0.197	0.126
NCI-H1355	0.639	0.777	0.58	0.495	0.259	0.991	0.837	0.977	0.932	0.705	1.06	1	1.01	0.945	0.878	1.1	1.08	0.928	0.754	0.607
NCI-H1395	0.423	0.402	0.398	0.373	0.363	1.05	1.01	0.975	0.96	0.823	0.857	0.859	1.06	0.847	0.629	0.788	1.03	0.559	0.775	0.379
NCI-H1437	0.442	0.475	0.331	0.382	0.265	1.31	1.4	1.25	1.32	1.41	0.318	0.326	0.318	0.302	0.298	0.274	0.305	0.293	0.23	0.238
NCI-H1563	0.487	0.447	0.499	0.409	0.362	1.03	0.944	0.96	0.991	1.02	0.799	0.508	0.788	0.642	0.599	0.71	0.855	0.613	0.797	0.723
NCI-H1650	0.263	0.345	0.391	0.387	0.144	1.15	–	1.36	1.14	0.858	0.382	0.369	0.424	0.358	0.365	0.472	0.367	0.383	0.319	0.322
NCI-H1651	0.395	0.557	0.393	0.443	0.248	0.862	0.656	0.801	0.794	0.735	0.601	0.538	0.532	0.527	0.338	0.534	0.722	0.571	0.615	0.388
NCI-H1666	1.13	0.922	0.924	0.747	0.649	0.961	0.942	0.931	0.962	0.997	1.02	0.818	0.842	0.82	0.93	0.988	0.92	0.948	0.95	0.707

Cell Line	relative viability (Lestaurtinib + Dasatinib; first compound 0.005 µM)	relative viability (Lestaurtinib + Dasatinib; first compound 0.01581 µM)	relative viability (Lestaurtinib + Dasatinib; first compound 0.05 µM)	relative viability (Lestaurtinib + Dasatinib; first compound 0.1581 µM)	relative viability (Lestaurtinib + Dasatinib; first compound 0.5 µM)	relative viability (TPCA-1 + Foretinib; first compound 0.04 µM)	relative viability (TPCA-1 + Foretinib; first compound 0.1265 µM)	relative viability (TPCA-1 + Foretinib; first compound 0.4 µM)	relative viability (TPCA-1 + Foretinib; first compound 1.265 µM)	relative viability (TPCA-1 + Foretinib; first compound 4 µM)	relative viability (TPCA-1 + Pemetrexed; first compound 0.04 µM)	relative viability (TPCA-1 + Pemetrexed; first compound 0.1265 µM)	relative viability (TPCA-1 + Pemetrexed; first compound 0.4 µM)	relative viability (TPCA-1 + Pemetrexed; first compound 1.265 µM)	relative viability (TPCA-1 + Pemetrexed; first compound 4 µM)	relative viability ([1]; first compound 0.005 µM)	relative viability ([1]; first compound 0.01581 µM)	relative viability ([1]; first compound 0.05 µM)	relative viability ([1]; first compound 0.1581 µM)	relative viability ([1]; first compound 0.5 µM)
NCI-H1734	0.48	0.518	0.42	0.263	0.143	0.897	0.742	0.917	0.818	0.732	0.41	0.413	0.41	0.48	0.362	0.439	0.392	0.402	0.397	0.178
NCI-H1755	0.439	0.424	0.293	0.288	0.208	0.914	0.895	0.923	0.832	0.669	0.448	0.437	0.459	0.379	0.444	0.478	0.463	0.41	0.36	0.353
NCI-H1793	0.431	0.392	0.316	0.361	0.271	0.72	–	0.647	0.559	0.263	0.97	0.709	0.921	0.963	0.249	0.809	0.911	0.544	0.692	0.541
NCI-H1915	0.37	0.272	0.243	0.236	0.191	1.17	1.06	1.15	1.07	0.872	0.532	0.507	0.509	0.46	0.371	0.589	0.432	0.458	0.447	0.205
NCI-H1944	0.207	0.23	0.176	0.137	0.147	1.04	0.821	0.869	0.847	0.488	0.631	0.466	0.705	0.589	0.487	0.663	0.595	0.492	0.409	0.25
NCI-H1975	0.479	0.396	0.373	0.328	0.257	0.949	0.919	0.995	0.97	0.532	0.305	0.297	0.3	0.298	0.286	0.298	0.295	0.292	0.281	0.218
NCI-H1993	0.565	0.32	0.504	0.495	0.468	0.798	0.644	0.75	0.663	0.676	0.613	0.547	0.564	0.628	0.503	0.581	0.657	0.644	0.411	0.497
NCI-H2009	0.257	0.227	0.2	0.211	0.118	1.24	1.21	1.22	1.28	1.18	1.07	0.979	1	1.11	0.99	1.07	1.06	0.998	0.934	0.835
NCI-H2023	0.674	0.586	0.422	0.473	0.159	0.88	0.86	0.874	0.797	0.658	0.2	0.282	0.254	0.222	0.202	0.292	0.285	0.201	0.153	0.0898
NCI-H2085	0.236	0.265	0.3	0.335	0.496	0.846	0.79	1.2	0.882	0.742	–	0.864	0.918	0.872	0.634	0.861	0.877	0.915	0.858	0.78
NCI-H2087	0.843	0.81	0.494	0.724	0.319	1.52	0.99	1.09	0.894	0.432	0.615	0.472	0.646	0.651	0.539	0.708	0.688	0.675	0.632	0.332
NCI-H2126	0.678	0.759	0.59	0.624	0.463	1.25	0.721	1.16	1.06	1	0.636	0.607	0.679	0.508	0.524	0.757	0.685	0.66	0.666	0.476
NCI-H2170	0.493	0.551	0.466	0.364	0.376	1.08	0.985	0.998	0.986	0.682	0.273	0.34	0.288	0.28	0.265	0.258	0.259	0.259	0.261	0.175
NCI-H2228	0.494	0.546	0.497	0.22	0.18	0.899	0.677	0.842	0.717	0.722	0.364	0.322	0.319	0.316	0.306	0.381	0.383	0.299	0.147	0.148
NCI-H2342	0.328	0.314	0.264	0.313	0.259	1.03	0.998	1.15	0.992	0.962	0.821	0.709	0.778	0.609	0.584	0.74	0.773	0.796	0.858	0.6
NCI-H2347	0.278	0.15	0.319	0.252	0.253	1.03	–	1.16	0.551	0.782	0.385	0.419	0.417	0.385	0.424	0.443	0.43	0.432	0.44	0.404
